Experiments:
[1] = test system: Parkinson's Disease; conditions: cited from earlier work
[2] = target: T1, diamine oxidase (Homo sapiens, UniProt P19801); experiment: in vitro comparison of chloroquine phosphate enantiomers for inhibition of diamine oxidase; assay type: biochemical; conditions: compared between enantiomers of chloroquine phosphate
T1 sequence (P19801 20-751): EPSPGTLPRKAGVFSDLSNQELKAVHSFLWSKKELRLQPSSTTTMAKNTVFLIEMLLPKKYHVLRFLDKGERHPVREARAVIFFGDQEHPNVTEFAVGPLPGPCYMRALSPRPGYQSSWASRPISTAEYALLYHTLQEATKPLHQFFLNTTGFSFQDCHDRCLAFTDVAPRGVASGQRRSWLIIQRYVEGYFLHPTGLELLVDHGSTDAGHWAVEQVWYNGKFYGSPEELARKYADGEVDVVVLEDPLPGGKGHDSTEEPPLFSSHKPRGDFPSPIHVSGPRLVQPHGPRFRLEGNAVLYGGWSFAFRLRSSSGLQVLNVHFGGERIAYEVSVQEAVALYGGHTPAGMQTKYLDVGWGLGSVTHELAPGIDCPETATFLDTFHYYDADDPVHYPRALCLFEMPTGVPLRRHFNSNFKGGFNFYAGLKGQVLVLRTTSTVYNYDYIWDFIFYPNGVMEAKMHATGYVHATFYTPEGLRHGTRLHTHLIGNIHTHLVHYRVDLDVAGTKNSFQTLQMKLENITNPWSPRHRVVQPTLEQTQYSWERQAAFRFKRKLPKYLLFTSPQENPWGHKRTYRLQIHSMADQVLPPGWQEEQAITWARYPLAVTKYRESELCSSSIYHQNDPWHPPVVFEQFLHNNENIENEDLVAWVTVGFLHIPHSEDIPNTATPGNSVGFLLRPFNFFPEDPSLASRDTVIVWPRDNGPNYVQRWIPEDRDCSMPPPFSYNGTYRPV
Protocol: (§1) Enantiomers of chloroquine phosphate were isolated according to the procedure of Stalcup, A. M. et al. (1996), Analytical Chemistry 68:2248-50. Comparisons of these enantiomers with respect to ability to inhibit diamine oxidase and bind to neuromelanin are performed in vitro.

[3] = in vitro comparison of chloroquine phosphate enantiomers for binding to neuromelanin; conditions: compared between enantiomers of chloroquine phosphate
Protocol: as §1

C#CCN(C)[C@H](C)Cc1ccccc1 [Deprenyl]
delay of the need to commence L-DOPA treatment ([1]; American researchers): up to nine months
increase in patient mortality ([1]; co-administered with L-DOPA, compared to the group treated with L-DOPA only): 60%
neural protection ([1]; two-year patient follow-up examinations): no neural protection was found

CCN(CC)CCCC(C)Nc1ccnc2cc(Cl)ccc12 (single isomer, unassigned) [active enantiomer]
ability to inhibit diamine oxidase [2]: significantly enhanced ability
ability to bind neuromelanin [3]: significantly enhanced ability

— patent US6417177B1, “Chloroquine derivatives for the treatment of Parkinson's disease” (Alpha Research Group, LLC, priority 1999, dated 2002)
